Laboratory results published in patent US7271154B2, “Antibiotic conjugates” (Merckle GmbH, priority 2002, dated 2007).

Key:
[1] = compared with erythromycin; cited from earlier work
[2] = test system: PMN; test: Antimicrobial agent uptake by PMN (bioassay); type: in vitro ADME; conditions: intracellular/extracellular concentration, 1 h

Row | I/E ratio [2] | Structure (SMILES) | stability in the presence of acids [1]
1 | – | CC[C@H]1OC(=O)[C@H](C)[C@@H](O[C@H]2C[C@@](C)(OC)[C@@H](O)[C@H](C)O2)[C@H](C)[C@@H](O[C@@H]2O[C@H](C)C[C@H](N(C)C)[C@H]2O)[C@](C)(O)C[C@@H](C)CN(C)[C@H](C)[C@@H](O)[C@]1(C)O [Azithromycin] | more stable than erythromycin
2 | 4.8 | C[C@H]1COc2c(N3CCN(C)CC3)c(F)cc3c(=O)c(C(=O)O)cn1c23 [Levofloxacin] | –
3 | 12.0 | COc1c(N2C[C@@H]3CCCN[C@@H]3C2)c(F)cc2c(=O)c(C(=O)O)cn(C3CC3)c12 [Moxifloxacin] | –
4 | 0.16 | CC1(C)SC2C(NC(=O)Cc3ccccc3)C(=O)N2C1C(=O)O (stereo not shown) [Penicillin G, 3,3-Dimethyl-7-oxo-6-phenylacetylamino-4-thia-1-aza-bicyclo[3.2.0]heptane-2-carboxylic acid] | –
